The source of these data is patent US20070010671A1, “Novel quinazoline derivatives and methods of treatment related to the use thereof” (priority 2003, published 2007).

This assay has as its target MCH receptor (Homo sapiens, UniProt Q99705). The assay can be described thus: High throughput functional screening FLIPR/FDSS6000: inhibition of MCH-evoked intracellular Ca2+ changes. As to conditions: read-out: class. In kind it is cell-based. The essentials: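 Cells expressing a non-endogenous, constitutively active MCH receptor were loaded with 4 μM Fluo4-AM (with probenecid) for 1 hr at 37° C. Test compound was preincubated 3 min at 37° C before 50 nM MCH was added. The [Ca2+]i transient was read at Ex 488/Em 530 nm for 290 s.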

Setting [1] is: class by percent of control at 10^−7 M or by IC50.
[2] abbreviates: class by percent of control at 10^-7 M or by IC50.

Like-named read-outs stand apart in the source and are kept apart here.

Take `CN(C)c1nc(N[C@H]2CC[C@@H](NC(=O)c3cccc(NC(=O)C(C)(C)C)c3)CC2)nc2ccccc12` [Example 1202, N-(cis-4-{(4-(dimethylamino)quinazolin-2-yl]amino}cyclohexyl)-3-[(2,2-dimethylpropanoyl)amino]benzamide]: under setting [1], the IC50 was 50 to 200 nM. As to `CN(C)c1nc(N[C@H]2CC[C@@H](NC(=O)c3cccc(NC(=O)C4CCCC4)c3)CC2)nc2ccccc12` [Example 1203, 3-[(cyclopentylcarbonyl)amino]-N-(cis-4-{[4-(dimethylamino)quinazolin-2-yl]amino}cyclohexyl)benzamide], under setting [1], the IC50 was less than 50 nM. On to `CC(=O)Nc1cccc(C(=O)N[C@H]2CC[C@@H](Nc3nc(N(C)C)c4ccccc4n3)CC2)c1` [Example 1204, 3-(acetylamino)-N-(cis-4-{[4-(dimethylamino)quinazolin-2-yl]amino}cyclohexyl)benzamide], for which, under setting [1], the IC50 was less than 50 nM. Take `CN(C)c1nc(N[C@H]2CC[C@@H](NC(=O)c3ccccc3)CC2)nc2cc(F)c(F)cc12` [Example 1205, N-(cis-4-{[4-(dimethylamino)-6,7-difluoroquinazolin-2-yl]amino}cyclohexyl)benzamide]: the IC50 under setting [1] was less than 50 nM. On to `Cc1ccc(C(=O)N[C@H]2CC[C@@H](Nc3nc(N(C)C)c4cc(F)c(F)cc4n3)CC2)cc1` [Example 1206, N-(cis-4-{[4-(dimethylamino)-6,7-difluoroquinazolin-2-yl]amino}cyclohexyl)-4-methylbenzamide], for which the IC50 under setting [1] is less than 50 nM. On the same count and under the same terms, the value for `CN(C)c1nc(N[C@H]2CC[C@@H](NC(=O)c3ccc(F)cc3)CC2)nc2cc(F)c(F)cc12` [Example 1207, N-(cis-4-{[4-(dimethylamino)-6,7-difluoroquinazolin-2-yl]amino}cyclohexyl)-4-fluorobenzamide] was less than 50 nM; that for `COc1cccc(C(=O)N[C@H]2CC[C@@H](Nc3nc(N(C)C)c4cc(F)c(F)cc4n3)CC2)c1` [Example 1208, N-(cis-4-{[4-(dimethylamino)-6,7-difluoroquinazolin-2-yl]amino}cyclohexyl)-3-methoxybenzamide] was less than 50 nM. For `CN(C)c1nc(N[C@H]2CC[C@@H](NC(=O)c3ccc(F)c(F)c3)CC2)nc2cc(F)c(F)cc12` [Example 1209, N-(cis-4-{[4-(dimethylamino)-6,7-difluoroquinazolin-2-yl]amino}cyclohexyl)-3,4-difluorobenzamide], the IC50 under setting [1] is less than 50 nM. The same measure, in the same setting: the same measure for `CN(C)c1nc(N[C@H]2CC[C@@H](NC(=O)c3cccc(C(F)(F)F)c3)CC2)nc2cc(F)c(F)cc12` [Example 1210, N-(cis-4-{[4-(dimethylamino)-6,7-difluoroquinazolin-2-yl]amino}cyclohexyl)-3-(trifluoromethyl)benzamide]: less than 50 nM; for `CN(C)c1nc(N[C@H]2CC[C@@H](NC(=O)c3ccc(OC(F)(F)F)cc3)CC2)nc2cc(F)c(F)cc12` [Example 1211, N-(cis-4-{[4-(dimethylamino)-6,7-difluoroquinazolin-2-yl]amino}cyclohexyl)-4-(trifluoromethoxy)benzamide]: more than 200 nM. With `CC(=O)c1cccc(NC(=O)N[C@H]2CC[C@@H](Nc3nc(N(C)C)c4ccccc4n3)CC2)c1` [compound 4], under setting [2], the IC50 is more than 200 nM. Regarding `CC(=O)c1ccc(NC(=O)N[C@H]2CC[C@@H](Nc3nc(N(C)C)c4ccccc4n3)CC2)cc1` [compound 6], the IC50 under setting [2] was more than 200 nM. `CN(C)c1nc(N[C@H]2CC[C@@H](NC(=O)NC(=O)c3ccccc3)CC2)nc2ccccc12` [compound 7]: the IC50 under setting [2] was more than 200 nM.

Take `CN(C)c1nc(N[C@H]2CC[C@@H](NC(=O)Nc3cc(C(F)(F)F)cc(C(F)(F)F)c3)CC2)nc2ccccc12` [compound 8]: the IC50 under setting [2] is more than 200 nM.

With `CN(C)c1nc(N[C@H]2CC[C@@H](NC(=O)NCc3ccccc3)CC2)nc2ccccc12` [compound 9, N-benzyl-N′-(cis-4-{[4-(dimethylamino)quinazolin-2-yl]amino}cyclohexyl)urea], under setting [2], the IC50 lay in the range of 50 to 200 nM. Same read-out and setting: the same measure for `CN(C)c1nc(N[C@H]2CC[C@@H](NC(=O)Nc3ccccc3Br)CC2)nc2ccccc12` [compound 10, N-(2-bromophenyl)-N′-(cis-4-{[4-(dimethylamino)quinazolin-2-yl]amino}cyclohexyl)urea]: less than 50 nM; for `CN(C)c1nc(N[C@H]2CC[C@@H](NC(=O)Nc3ccccc3-c3ccccc3)CC2)nc2ccccc12` [compound 11, N-biphenyl-2-yl-N′-(cis-4-{[4-(dimethylamino)quinazolin-2-yl]amino}cyclohexyl)urea]: less than 50 nM. For `CN(C)c1nc(N[C@H]2CC[C@@H](NC(=O)Nc3ccc(Br)cc3)CC2)nc2ccccc12` [compound 12, N-(4-bromophenyl)-N′-(cis-4-{[4-(dimethylamino)quinazolin-2-yl]amino}cyclohexyl)urea], the IC50 under setting [2] was 50 to 200 nM.

For the molecule `CCCCNC(=O)N[C@H]1CC[C@@H](Nc2nc(N(C)C)c3ccccc3n2)CC1` [compound 13, N-butyl-N′-(cis-4-{[4-(dimethylamino)quinazolin-2-yl]amino}cyclohexyl)urea], the IC50 under setting [2] is less than 50 nM.

In the case of `CN(C)c1nc(N[C@H]2CC[C@@H](NC(=O)Nc3cccc(Cl)c3)CC2)nc2ccccc12` [compound 14], the IC50 under setting [2] was more than 200 nM. On the same count and under the same terms, the same measure for `CN(C)c1nc(N[C@H]2CC[C@@H](NC(=O)Nc3ccc(Cl)cc3)CC2)nc2ccccc12` [compound 15]: more than 200 nM; for `CN(C)c1nc(N[C@H]2CC[C@@H](NC(=O)NC3CCCCC3)CC2)nc2ccccc12` [compound 16, N-cyclohexyl-N′-(cis-4-{[4-(dimethylamino)quinazolin-2-yl]amino}cyclohexyl)urea]: 50 to 200 nM. In the case of `CN(C)c1nc(N[C@H]2CC[C@@H](NC(=O)Nc3cccc(C#N)c3)CC2)nc2ccccc12` [compound 17], under setting [2], the IC50 was more than 200 nM. For `CN(C)c1nc(N[C@H]2CC[C@@H](NC(=O)Nc3ccccc3Cl)CC2)nc2ccccc12` [compound 18, N-(2-chlorophenyl)-N′-(cis-4-{[4-(dimethylamino)quinazolin-2-yl]amino}cyclohexyl)urea], the IC50 under setting [2] is less than 50 nM. With `Cc1cccc(C)c1NC(=O)N[C@H]1CC[C@@H](Nc2nc(N(C)C)c3ccccc3n2)CC1` [compound 19, N-(cis-4-{[4-(dimethylamino)quinazolin-2-yl]amino}cyclohexyl)-N′-(2,6-dimethylphenyl)urea], under setting [2], the IC50 was less than 50 nM. Regarding `CN(C)c1nc(N[C@H]2CC[C@@H](NC(=O)Nc3ccc(Cl)c(Cl)c3)CC2)nc2ccccc12` [compound 20], the IC50 under setting [2] is more than 200 nM. The same measure, in the same setting: the value for `CN(C)c1nc(N[C@H]2CC[C@@H](NC(=O)Nc3ccc(F)cc3F)CC2)nc2ccccc12` [compound 21, N-(2,4-difluorophenyl)-N′-(cis-4-{[4-(dimethylamino)quinazolin-2-yl]amino}cyclohexyl)urea] was less than 50 nM. As to `CN(C)c1nc(N[C@H]2CC[C@@H](NC(=O)Nc3ccc(Cl)cc3Cl)CC2)nc2ccccc12` [compound 22, N-(2,4-dichlorophenyl)-N′-(cis-4-{[4-(dimethylamino)quinazolin-2-yl]amino}cyclohexyl)urea], the IC50 under setting [2] is 50 to 200 nM. Same read-out and setting: the same measure for `CN(C)c1nc(N[C@H]2CC[C@@H](NC(=O)Nc3cc(Cl)cc(Cl)c3)CC2)nc2ccccc12` [compound 23]: more than 200 nM. `CN(C)c1nc(N[C@H]2CC[C@@H](NC(=O)Nc3cccc(Cl)c3Cl)CC2)nc2ccccc12` [compound 24]: under setting [2], the IC50 was more than 200 nM. Still for that read-out and setting: the same measure for `CN(C)c1nc(N[C@H]2CC[C@@H](NC(=O)Nc3c(F)cccc3F)CC2)nc2ccccc12` [compound 25]: more than 200 nM; for `CN(C)c1nc(N[C@H]2CC[C@@H](NC(=O)Nc3cc(Cl)ccc3Cl)CC2)nc2ccccc12` [compound 26]: more than 200 nM.

On to `Cc1cccc(NC(=O)N[C@H]2CC[C@@H](Nc3nc(N(C)C)c4ccccc4n3)CC2)c1C` [compound 27, N-(cis-4-{[4-(dimethylamino)quinazolin-2-yl]amino}cyclohexyl)-N′-(2,3-dimethylphenyl)urea], for which, under setting [2], the IC50 is less than 50 nM.

As to `CCOC(=O)CNC(=O)N[C@H]1CC[C@@H](Nc2nc(N(C)C)c3ccccc3n2)CC1` [compound 28], under setting [2], the IC50 is more than 200 nM.

With `CCOC(=O)c1cccc(NC(=O)N[C@H]2CC[C@@H](Nc3nc(N(C)C)c4ccccc4n3)CC2)c1` [compound 29, ethyl 3-({[(cis-4-{[4-(dimethylamino)quinazolin-2-yl]amino}cyclohexyl)amino]carbonyl}amino)benzoate], under setting [2], the IC50 is less than 50 nM. On the same count and under the same terms, the value for `CCOC(=O)c1ccc(NC(=O)N[C@H]2CC[C@@H](Nc3nc(N(C)C)c4ccccc4n3)CC2)cc1` [compound 30, ethyl 4-({[(cis-4-{[4-(dimethylamino)quinazolin-2-yl]amino}cyclohexyl)amino]carbonyl}amino)benzoate] was 50 to 200 nM. Same read-out and setting: the same measure for `CCc1ccc(NC(=O)N[C@H]2CC[C@@H](Nc3nc(N(C)C)c4ccccc4n3)CC2)cc1` [compound 31, N-(cis-4-{[4-(dimethylamino)quinazolin-2-yl]amino}cyclohexyl)-N′-(4-ethylphenyl)urea]: 50 to 200 nM; for `CCNC(=O)N[C@H]1CC[C@@H](Nc2nc(N(C)C)c3ccccc3n2)CC1` [compound 32]: more than 200 nM. Same read-out and setting: the same measure for `CCc1cccc(C)c1NC(=O)N[C@H]1CC[C@@H](Nc2nc(N(C)C)c3ccccc3n2)CC1` [compound 33, N-(cis-4-{[4-(dimethylamino)quinazolin-2-yl]amino}cyclohexyl)-N′-(2-ethyl-6-methylphenyl)urea]: less than 50 nM; for `CCOC(=O)C(CC(C)C)NC(=O)NC1CCC(Nc2nc(N(C)C)c3ccccc3n2)CC1` (stereo not drawn) [compound 34, ethyl N-{[(cis-4-{[4-(dimethylamino)quinazolin-2-yl]amino}cyclohexyl)amino]carbonyl}lucinate]: less than 50 nM. Take `CN(C)c1nc(N[C@H]2CC[C@@H](NC(=O)Nc3ccc(F)c([N+](=O)[O-])c3)CC2)nc2ccccc12` [compound 35]: under setting [2], the IC50 was more than 200 nM.
